The source of these data is US9580390B2, “Indazole compounds as kinase inhibitors and method of treating cancer with same” (University Health Network, priority 2011, dated 2017).

In assay [1] the test system is ovarian cancer cells (PA-1). Nature of the assay: Cancer cell line growth inhibition (SRB assay). In kind it is cell-based. Conditions: Homo sapiens, PA-1; read-out: Cancer Cell Line GI50 Range PA-1. Background: Sulforhodamine B stains cellular protein and so reports cell mass.
The test system of assay [2] is colon cancer cells (HCT116). Nature of the assay: Cancer cell line growth inhibition (SRB assay). In kind it is cell-based. Particulars: Homo sapiens, HCT-116; read-out: Cancer Cell Line GI50 Range HCT116.
In a further assay the target is T1, human TTK (Homo sapiens, UniProt P33981).
T1 construct: amino terminal GST fusion of full length human TTK; purchased Invitrogen
T1 sequence (P33981 1-857): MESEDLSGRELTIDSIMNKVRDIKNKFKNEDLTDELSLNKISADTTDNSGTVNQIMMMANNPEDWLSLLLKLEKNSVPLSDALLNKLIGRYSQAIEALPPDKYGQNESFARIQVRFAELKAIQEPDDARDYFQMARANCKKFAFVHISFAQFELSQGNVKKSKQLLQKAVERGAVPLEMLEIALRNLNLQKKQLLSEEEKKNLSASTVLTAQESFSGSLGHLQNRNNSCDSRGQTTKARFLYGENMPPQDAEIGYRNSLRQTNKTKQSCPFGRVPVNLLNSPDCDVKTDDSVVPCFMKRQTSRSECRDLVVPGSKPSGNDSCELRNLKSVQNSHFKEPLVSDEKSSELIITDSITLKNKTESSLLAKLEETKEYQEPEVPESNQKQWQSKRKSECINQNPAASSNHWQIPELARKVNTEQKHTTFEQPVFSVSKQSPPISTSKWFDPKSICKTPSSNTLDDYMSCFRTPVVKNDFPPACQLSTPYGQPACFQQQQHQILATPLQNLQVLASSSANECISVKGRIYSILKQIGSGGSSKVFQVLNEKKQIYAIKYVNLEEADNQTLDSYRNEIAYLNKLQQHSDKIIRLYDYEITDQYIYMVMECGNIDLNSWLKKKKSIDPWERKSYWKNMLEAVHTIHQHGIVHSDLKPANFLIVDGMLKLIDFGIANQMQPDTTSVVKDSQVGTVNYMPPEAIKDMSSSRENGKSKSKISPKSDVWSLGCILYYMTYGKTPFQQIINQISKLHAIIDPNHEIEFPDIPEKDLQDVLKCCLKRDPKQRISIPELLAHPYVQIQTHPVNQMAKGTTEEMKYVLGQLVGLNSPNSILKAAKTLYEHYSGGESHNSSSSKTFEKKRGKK
Nature of the assay: TTK inhibition assay (indirect ELISA). It is filed as biochemical. Particulars: read-out: TTK IC50 Range. In general terms: An ELISA detects its analyte on a solid surface through an enzyme-linked reagent.

Another assay concerns Breast cancer cells. Nature of the assay: Cancer cell line growth inhibition (SRB assay). Conditions: Homo sapiens; MDA-MB-468; read-out: Cancer Cell Line GI50 Range MDA-MB-468. It is filed as cell-based.
A further assay has as its target T2, human PLK4 (Homo sapiens, UniProt O00444).
T2 construct: amino terminal GST fusion of residues 1-391 of human PLK4; made in house; host or cells: E. coli
T2 sequence (O00444 1-391): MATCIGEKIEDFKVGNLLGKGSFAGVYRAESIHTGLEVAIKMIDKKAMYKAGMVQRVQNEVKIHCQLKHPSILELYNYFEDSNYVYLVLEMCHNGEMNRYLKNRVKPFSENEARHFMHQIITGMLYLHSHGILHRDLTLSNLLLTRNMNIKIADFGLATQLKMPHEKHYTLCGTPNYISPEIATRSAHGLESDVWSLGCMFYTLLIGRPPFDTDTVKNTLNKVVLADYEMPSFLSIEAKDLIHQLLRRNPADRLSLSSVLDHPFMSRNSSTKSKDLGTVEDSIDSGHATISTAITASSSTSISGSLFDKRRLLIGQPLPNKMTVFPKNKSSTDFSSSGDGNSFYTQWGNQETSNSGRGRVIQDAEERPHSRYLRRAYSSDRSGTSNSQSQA
Nature of the assay: PLK4 inhibition assay (indirect ELISA). It is filed as biochemical. Particulars: 15 μM ATP. The protocol: Active PLK4 was purified from an E. coli expression system as an amino terminal GST fusion of residues 1-391 of human PLK4. The protein was purified from clarified cell extracts after induction at 15° C. overnight using glutathione sepharose, gel permeation chromatography, and ion exchange (Resource Q). The resulting protein was dephosphorylated with lambda phosphatase (NEB cat# P0753), and resolved from the phosphatase using gluthione sepharose. The dephosphorylated GST-PLK4 was stored in aliquots at −80° C. until use.
PLK4 activity was measured using an indirect ELISA detection system. Dephosphorylated GST-PLK4 (4 nM) was incubated in the presence of 15 μM ATP (Sigma cat# A7699), 50 mM HEPES-[…] pH 7.4, 10 mM MgCl2, 0.01% Brij 35 (Sigma cat# 03-3170), in a 96 well microtitre plate pre-coated with MBP (Millipore cat#30-011). The reaction was allowed to proceed for 30 minutes, followed by 5 washes of the plate with Wash Buffer (50 mM TRIS-Cl pH 7.4 and 0.2% Tween 20), and incubation for 30 minutes with a 1:3000 dilution of primary antibody (Cell Signaling cat# 9381). The plate was washed 5 times with Wash Buffer, incubated for 30 minutes in the presence of secondary antibody coupled to horse radish peroxidase (BioRad cat# 1721019, 1:3000 concentration), washed an additional 5 times with Wash Buffer, and incubated in the presence of TMB substrate (Sigma cat# T0440). The colourimetric reaction was allowed to continue for 5 minutes, followed by addition of stop solution (0.5 N sulphuric acid), and quantified by detection at 450 nm with either a monochromatic or filter based plate reader (Molecular Devices M5 or Beckman DTX880, respectively).
Compound inhibition was determined at either a fixed concentration (10 μM) or at a variable inhibitor concentration (typically 50 μM to 0.1 μM in a 10 point dose response titration). Compounds were pre-incubated in the presence of enzyme for 15 minutes prior to addition of ATP and the activity remaining quantified using the above described activity assay. The % Inhibition of a compound was determined using the following formula: % Inhibition=100×(1−(experimental value−background value)/(high activity control−background value)). The IC50 value was determined using a non-linear 4 point logistic curve fit (XLfit4, IDBS) with the formula: (A+(B/(1+((x/C)^D)))), where A=background value, B=range, C=inflection point, D=curve fit parameter.

Turning to `CN1CCC2(CCc3cc(-c4n[nH]c5ccc(C(=O)N[C@H](c6ccccc6)C6CC6)cc45)ccc3O2)CC1` [Example A249, (S)-N-(cyclopropyl(phenyl)methyl)-3-(1′-methylspiro[chroman-2,4′-piperidin]-6-yl)-1H-indazole-5-carboxamide], the 50% growth inhibitory concentration (GI50) (in assay [1]; in assay [2]; with Breast cancer cells) was 100 to 500 nM throughout. For the same compound, the IC50 at human TTK is under 100 nM; at human PLK4, under 50 nM.

`CN1[C@@H]2CC[C@H]1C[C@@H](Oc1ccc(-c3n[nH]c4ccc(C(=O)NC(c5ccccc5F)C5CC5)cc34)cc1)C2` (stereo partly drawn) [Example A282, N-(cyclopropyl(2-fluorophenyl)methyl)-3-(4-(((1R,3R,5S)-8-methyl-8-azabicyclo[3.2.1]octan-3-yl)oxy)phenyl)-1H-indazole-5-carboxamide]: the GI50 in assay [1] is under 100 nM; in assay [2] it was under 100 nM; with Breast cancer cells, 100 to 500 nM. In addition, the 50% inhibitory concentration (IC50) on human TTK is under 100 nM; on human PLK4, under 50 nM.

With `C=CCCC(NC(=O)c1ccc2[nH]nc(-c3ccc(N4CCN(C5COC5)CC4)cc3)c2c1)c1ccccc1Cl` (stereo not drawn) [Example A302, N-(1-(2-chlorophenyl)pent-4-en-1-yl)-3-(4-(4-(oxetan-3-yl)piperazin-1-yl)phenyl)-1H-indazole-5-carboxamide], the GI50 is under 100 nM in assay [1], under 100 nM in assay [2] and 100 to 500 nM with Breast cancer cells. Also, the results for the IC50 at human TTK and at human PLK4 were under 100 nM and under 50 nM, respectively.

Take `CN1[C@@H]2CC[C@H]1C[C@@H](Oc1ccc(-c3n[nH]c4ccc(C(=O)NC(c5ccccc5Cl)C5CC5)cc34)cc1)C2` (stereo partly drawn) [Example A280, N-((2-chlorophenyl)(cyclopropyl)methyl)-3-(4-(((1R,3R,5S)-8-methyl-8-azabicyclo[3.2.1]octan-3-yl)oxy)phenyl)-H-indazole-5-carboxamide]: the 50% growth inhibitory concentration (GI50) in assay [1] was under 100 nM; in assay [2], under 100 nM; in the assay on Breast cancer cells, 100 to 500 nM. Besides, the results for the IC50 on human TTK and at human PLK4 were under 100 nM and under 50 nM, respectively.

On to `CCC(CC)C(NC(=O)c1ccc2[nH]nc(-c3ccc(O[C@H]4C[C@H]5CC[C@@H](C4)N5C=O)cc3)c2c1)c1ccccn1` (stereo partly drawn) [Example A342, N-(2-ethyl-1-(pyridin-2-yl)butyl)-3-(4-(((1R,3R,5S)-8-formyl-8-azabicyclo[3.2.1]octan-3-yl)oxy)phenyl)-1H-indazole-5-carboxamide], for which the GI50 (in assay [1]; in assay [2]; with Breast cancer cells) was under 100 nM each time. In addition, the IC50 is under 100 nM at human TTK and under 50 nM on human PLK4.

On to `CC(C)C[C@H](NC(=O)c1ccc2[nH]nc(-c3ccc(N4C5COCC4CC(O)C5)cc3)c2c1)c1ccccc1Cl` (stereo partly drawn) [Example A424, N-((S)-1-(2-chlorophenyl)-3-methylbutyl)-3-(4-((1R,5S,7R)-7-hydroxy-3-oxa-9-azabicyclo[3.3.1]nonan-9-yl)phenyl)-1H-indazole-5-carboxamide], for which the GI50 (in assay [1]; in assay [2]; in the assay on Breast cancer cells) was under 100 nM in each case. Moreover, the IC50 was under 100 nM on human TTK and under 50 nM at human PLK4.

On to `CC(C)[C@H](NC(=O)c1ccc2[nH]nc(-c3ccc4c(c3)CCC3(CCN(C)CC3)O4)c2c1)c1ccccc1Cl` [Example A250, (S)-N-(1-(2-chlorophenyl)-2-methylpropyl)-3-(1′-methylspiro[chroman-2,4′-piperidin]-6-yl)-1H-indazole-5-carboxamide], for which the 50% growth inhibitory concentration (GI50) in assay [1] was under 100 nM; in assay [2] it was under 100 nM; with Breast cancer cells, 100 to 500 nM. For the same compound, the results for the IC50 at human TTK and on human PLK4 were under 100 nM and under 50 nM, respectively.

Consider `CC(C)C[C@H](NC(=O)c1ccc2[nH]nc(-c3ccc(N4CCN(C5COC5)CC4)cc3)c2c1)c1ccccn1` [Example A359, (S)-N-(3-methyl-1-(pyridin-2-yl)butyl)-3-(4-(4-(oxetan-3-yl)piperazin-1-yl)phenyl)-1H-indazole-5-carboxamide], for which the GI50 (in assay [1]; in assay [2]; in the assay on Breast cancer cells) was under 100 nM in each case. In addition, the IC50 was under 100 nM on human TTK and under 50 nM at human PLK4.

For the compound `CC(C)CC(NC(=O)c1ccc2[nH]nc(-c3ccc(OC4CCN(C5COC5)CC4)cc3)c2c1)c1ccccc1Cl` (stereo not drawn) [Example A355, N-(1-(2-chlorophenyl)-3-methylbutyl)-3-(4-((1-(oxetan-3-yl)piperidin-4-yl)oxy)phenyl)-1H-indazole-5-carboxamide], the concentration for 50% growth inhibition (GI50) (in assay [1]; in assay [2]; in the assay on Breast cancer cells) was 100 to 500 nM throughout. In addition, the IC50 was under 100 nM on human TTK and under 50 nM on human PLK4.

As for `CN1[C@@H]2CC[C@H]1C[C@@H](Oc1ccc(-c3n[nH]c4ccc(C(=O)NCC5(c6cccs6)CCOCC5)cc34)cc1)C2` [Example A445, 3-(4-(((1R,3R,5S)-8-methyl-8-azabicyclo[3.2.1]octan-3-yl)oxy)phenyl)-N-((4-(thiophen-2-yl)tetrahydro-2H-pyran-4-yl)methyl)-1H-indazole-5-carboxamide], the GI50 in assay [1] is under 100 nM; in assay [2] it was under 100 nM; in the assay on Breast cancer cells it was 100 to 500 nM. The IC50 at human TTK is under 100 nM; on human PLK4, under 50 nM.

In the case of `CC(C)CC(NC(=O)c1ccc2[nH]nc(-c3ccc(OC4CC5CCC(C4)N5C4COC4)cc3)c2c1)c1ccccn1` [Example A373, N-(3-methyl-1-(pyridin-2-yl)butyl)-3-(4-(((1R,3R,5S)-8-(oxetan-3-yl)-8-azabicyclo[3.2.1]octan-3-yl)oxy)phenyl)-1H-indazole-5-carboxamide], the GI50 (in assay [1]; in assay [2]; in the assay with Breast cancer cells) was 100 to 500 nM throughout. Besides, the IC50 was under 100 nM on human TTK and under 50 nM at human PLK4.

For the compound `CC(C)(C)C[C@H](NC(=O)c1ccc2[nH]nc(-c3ccc(N4CCN(C5COC5)CC4)cc3)c2c1)c1ccccc1` [Example A372, (S)-N-(3,3-dimethyl-1-phenylbutyl)-3-(4-(4-(oxctan-3-yl)piperazin-1-yl)phenyl)-1H-indazole-5-carboxamide], the GI50 was under 100 nM in assay [1], under 100 nM in assay [2] and 100 to 500 nM in the assay on Breast cancer cells. Besides, the IC50 on human TTK was under 100 nM; on human PLK4, under 50 nM.

As a reminder, the GI50 is the concentration giving 50% growth inhibition. For orientation: IC50 means the concentration at which inhibition is half-maximal.
